Results published in patent US11912693B2, “Compounds for modulating S1P1 activity and methods of using the same” (TREVENA, INC., priority 2017, dated 2024).

Assays:
[1] = target: T1, human sphingosine-1-phosphate receptor 1 (S1P1) (Homo sapiens (Human), UniProt P21453); experiment: Inhibition of cAMP production (HTRF cAMP HiRange), S1P1 CHO-K1 cells; assay type: cell-based; conditions: for hS1P1 cAMP pEC50 / EC50: inhibition of cAMP production, S1P1 CHO-K1 cells; for Emax: CHO-K1, efficacy (SPAN) normalized to fingolimod, read-out: hS1P1 cAMP SPAN; for EC50: read-out: hS1P1 cAMP pEC50 (converted)
Method in brief: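 CHO-K1 cells stably co-expressing human S1P1 (C-terminal Prolink tag) and EA-β-arrestin2 were grown in AssayComplete Media 6 at 37° C. and 5% CO2, plated, and incubated overnight. Agonist-driven inhibition of intracellular cAMP was read by TR-FRET with the HTRF cAMP HiRange kit on a PheraStar reader. Potency is pEC50, and efficacy (SPAN) is normalized to fingolimod.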
Target sequence in this assay (P21453 whole entry, looked up): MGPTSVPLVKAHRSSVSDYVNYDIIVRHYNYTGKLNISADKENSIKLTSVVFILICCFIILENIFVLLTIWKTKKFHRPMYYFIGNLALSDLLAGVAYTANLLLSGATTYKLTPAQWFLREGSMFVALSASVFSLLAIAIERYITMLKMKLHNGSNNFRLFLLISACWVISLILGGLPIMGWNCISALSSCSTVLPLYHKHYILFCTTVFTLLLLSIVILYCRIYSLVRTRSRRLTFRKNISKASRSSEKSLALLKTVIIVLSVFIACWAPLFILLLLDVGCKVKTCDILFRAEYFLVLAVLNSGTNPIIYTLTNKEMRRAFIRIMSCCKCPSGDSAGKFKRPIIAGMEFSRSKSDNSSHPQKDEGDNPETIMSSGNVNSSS

[2] = target: T1, human sphingosine-1-phosphate receptor 1 (S1P1); experiment: β-Arrestin2 recruitment assay (PathHunter), S1P1 CHO-K1 cells; assay type: cell-based; conditions: for Emax: CHO-K1, efficacy (SPAN) normalized to fingolimod, read-out: hS1P1 B-arrestin2 SPAN
Method in brief: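 Enzyme-fragment complementation read-out: agonist-driven β-arrestin2 binding to ProLink-tagged human S1P1 in stable CHO-K1 cells restores β-galactosidase, measured 1 h at room temperature after a 60 min 37° C. compound incubation. Potency as pEC50, efficacy relative to fingolimod (SPAN).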
Target sequence in this assay (P21453 whole entry, looked up): as above
Target sequence in this assay (P32121 whole entry partner, looked up): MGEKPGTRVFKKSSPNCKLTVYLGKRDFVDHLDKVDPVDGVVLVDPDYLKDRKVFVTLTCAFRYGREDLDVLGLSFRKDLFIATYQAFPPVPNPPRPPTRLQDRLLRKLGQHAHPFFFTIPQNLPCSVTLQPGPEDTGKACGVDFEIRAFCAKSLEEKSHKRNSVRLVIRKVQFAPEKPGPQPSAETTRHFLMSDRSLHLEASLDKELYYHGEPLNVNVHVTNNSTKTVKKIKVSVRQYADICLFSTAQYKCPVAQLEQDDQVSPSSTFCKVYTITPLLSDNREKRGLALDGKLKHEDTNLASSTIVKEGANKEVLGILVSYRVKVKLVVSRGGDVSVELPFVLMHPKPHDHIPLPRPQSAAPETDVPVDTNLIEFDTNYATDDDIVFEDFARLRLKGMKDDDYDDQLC

[3] = β-arrestin2 recruitment, S1P1 CHO-K1 cells

Row | Structure (SMILES) | hS1P1 cAMP pEC50 [1] | hS1P1 B-arrestin2 pEC50 [2, 3] | Emax [1] | Emax [2] | EC50 [1] | EC50 ([2]; β-arrestin2 recruitment, S1P1 CHO-K1 cells, read-out: hS1P1 B-arrestin2 pEC50 (converted))
1 | COc1ccccc1-c1noc(-c2ccc3[nH]cnc3c2)n1 [Compound 369, 5-(1H-benzo[d]imidazol-5-yl)-3-(2-methoxyphenyl)-1,2,4-oxadiazole] | <6.5 | <5 | – | – | – | –
2 | CCC1(CC)CC(=O)c2cc(-c3ncc(-c4cccnc4)cn3)ccc2O1 [Compound 509, 2,2-diethyl-6-(5-(pyridin-3-yl)pyrimidin-2-yl)chroman-4-one] | <6.5 | <5 | – | – | – | –
3 | CNc1ccccc1-c1nc(-c2ccc3c(c2)nnn3C(C)C)no1 [Compound 599, N-methyl-2-{3-[1-(propan-2-yl)-1H-1,2,3-benzotriazol-5-yl]-1,2,4-oxadiazol-5-yl}aniline] | >6.5 | >5 | < 75% | > 75% | – | –
4 | Cc1ccncc1-c1noc(-c2ccc3c(c2)nnn3C2CC2)n1 [Compound 94, 1-cyclopropyl-5-[3-(4-methylpyridin-3-yl)-1,2,4-oxadiazol-5-yl]-1H-1,2,3-benzotriazole] | <6.5 | <5 | > 75% | > 75% | – | –
5 | CCC1(CC)CC(=O)c2cc(-c3nc(-c4cnccn4)no3)ccc2O1 [Compound 617, 2,2-diethyl-6-(3-(pyrazin-2-yl)-1,2,4-oxadiazol-5-yl)chroman-4-one] | <6.5 | <5 | – | – | – | –
6 | CC(C)Nc1ccc(-c2nnc(-c3ccc4c(c3)C(=O)NCC4)o2)cc1C#N [Compound 638, 5-[5-(1-oxo-1,2,3,4-tetrahydroisoquinolin-7-yl)-1,3,4-oxadiazol-2-yl]-2-[(propan-2-yl)amino]benzonitrile] | >6.5 | <5 | – | – | – | –
7 | COc1cccnc1-c1noc(-c2ccc3c(c2)nnn3C2CCCC2)n1 [Compound 203, 1-cyclopentyl-5-[3-(3-methoxypyridin-2-yl)-1,2,4-oxadiazol-5-yl]-1H-1,2,3-benzotriazole] | <6.5 | <5 | < 75% | > 75% | – | –
8 | CC(C)n1ccc2cc(-c3noc(-c4ccccn4)n3)ccc21 [Compound 397, 3-(1-isopropyl-1H-indol-5-yl)-5-(pyridin-2-yl)-1,2,4-oxadiazole] | <6.5 | <5 | – | – | – | –
9 | COc1ccccc1-c1nnc(-c2ccc3c(c2)CCC(=O)N3)o1 [Compound 341, 6-[5-(2-methoxyphenyl)-1,3,4-oxadiazol-2-yl]-1,2,3,4-tetrahydroquinolin-2-one] | <6.5 | <5 | – | – | – | –
10 | Oc1ccc(-c2noc(-c3ccc4c(c3)nnn4C3CCCC3)n2)cc1 [Compound 13, 4-[5-(1-cyclopentyl-1H-1,2,3-benzotriazol-5-yl)-1,2,4-oxadiazol-3-yl]phenol] | >6.5 | >5 | – | – | – | –
11 | CCC1(CC)CC(=O)c2cc(-c3nc(-c4ccncc4)no3)ccc2O1 [Compound 27, 2,2-diethyl-6-[3-(pyridin-4-yl)-1,2,4-oxadiazol-5-yl]-3,4-dihydro-2H-1-benzopyran-4-one] | <6.5 | >5 | > 75% | < 75% | – | –
12 | Cc1nccnc1-c1nc(-c2ccc3c(c2)nnn3C(C)(C)CO)no1 [Compound 641, 2-methyl-2-(5-(5-(3-methylpyrazin-2-yl)-1,2,4-oxadiazol-3-yl)-1H-benzo[d][1,2,3]triazol-1-yl)propan-1-ol] | <6.5 | <5 | < 75% | < 75% | – | –
13 | O=C1CC2(CCOCC2)Oc2ccc(-c3nc(-c4cccnc4)no3)cc21 [Compound 214, 6-[3-(pyridin-3-yl)-1,2,4-oxadiazol-5-yl]-3,4-dihydrospiro[1-benzopyran-2,4′-oxane]-4-one] | <6.5 | <5 | < 75% | < 75% | – | –
14 | CC(C)n1nnc2cc(-c3nc(-c4ccccc4N)co3)ccc21 [Compound 438, 2-{2-[1-(propan-2-yl)-1H-1,2,3-benzotriazol-5-yl]-1,3-oxazol-4-yl}aniline] | >6.5 | >5 | > 75% | > 75% | – | –
15 | CC(C)(O)Cn1nnc2cc(-c3nc(-c4ccncc4C(F)(F)F)no3)ccc21 [Compound 460, 2-methyl-1-(5-{3-[3-(trifluoromethyl)pyridin-4-yl]-1,2,4-oxadiazol-5-yl}-1H-1,2,3-benzotriazol-1-yl)propan-2-ol] | <6.5 | <5 | > 75% | > 75% | – | –
16 | CCn1nnc2cc(-c3noc(-c4ccccc4Br)n3)ccc21 [Compound 2, 5-(2-bromophenyl)-3-(1-ethyl-1H-benzo[d][1,2,3]triazol-5-yl)-1,2,4-oxadiazole] | – | >5 | > 75% | < 75% | > 316 nM | –
17 | CC(C)Oc1ccc(-c2noc(-c3ccc4c(c3)nnn4C(C)C)n2)cc1C(F)(F)F [Compound 20, 3-(4-isopropoxy-3-(trifluoromethyl)phenyl)-5-(1-isopropyl-1H-benzo[d][1,2,3]triazol-5-yl)-1,2,4-oxadiazole] | >6.5 | >5 | – | – | – | –
18 | Cc1cc(-c2noc(-c3ccc4c(c3)nnn4CC(C)(C)O)n2)c(C)o1 [Compound 493, 1-{5-[3-(2,5-dimethylfuran-3-yl)-1,2,4-oxadiazol-5-yl]-1H-1,2,3-benzotriazol-1-yl}-2-methylpropan-2-ol] | – | – | > 75% | > 75% | > 316 nM | > 10000 nM
19 | CCC1(CC)CC(=O)c2cc(-c3nc(-c4ccnc(OC)c4)no3)ccc2O1 [Compound 38, 2,2-diethyl-6-(3-(2-methoxypyridin-4-yl)-1,2,4-oxadiazol-5-yl)chroman-4-one] | <6.5 | <5 | < 75% | > 75% | – | –
20 | CC(C)Nc1ccc(-c2nnc(-c3ccc4[nH]c(=O)oc4c3)o2)cc1C#N [Compound 484, 5-[5-(2-oxo-2,3-dihydro-1,3-benzoxazol-6-yl)-1,3,4-oxadiazol-2-yl]-2-[(propan-2-yl)amino]benzonitrile] | >6.5 | >5 | – | – | – | –
21 | COCC1(COC)CC(=O)c2cc(-c3nc(-c4cccnc4)no3)ccc2O1 [Compound 186, 2,2-bis(methoxymethyl)-6-[3-(pyridin-3-yl)-1,2,4-oxadiazol-5-yl]-3,4-dihydro-2H-1-benzopyran-4-one] | <6.5 | <5 | < 75% | < 75% | – | –
22 | OCCCn1nnc2cc(-c3noc(-c4ccccc4Br)n3)ccc21 [Compound 24, 3-(5-(5-(2-bromophenyl)-1,2,4-oxadiazol-3-yl)-1H-benzo[d][1,2,3]triazol-1-yl)propan-1-ol] | <6.5 | <5 | – | – | – | –
23 | CC(C)n1ccc2cc(-c3nc(-c4cccc5c4OCCC5)no3)ccc21 [Compound 327, 3-chroman-8-yl-5-(1-isopropylindol-5-yl)-1,2,4-oxadiazole] | <6.5 | >5 | – | – | – | –
24 | CCC1(CC)CC(=O)c2cc(-c3nc(-c4cnccc4C)no3)ccc2O1 [Compound 549, 2,2-diethyl-6-(3-(4-methylpyridin-3-yl)-1,2,4-oxadiazol-5-yl)chroman-4-one] | >6.5 | >5 | – | – | – | –
25 | N#Cc1cc(-c2nnc(-c3ccc4c(c3)CCC(=O)N4)o2)ccc1NCC1CC1 [Compound 475, 2-[(cyclopropylmethyl)amino]-5-[5-(2-oxo-1,2,3,4-tetrahydroquinolin-6-yl)-1,3,4-oxadiazol-2-yl]benzonitrile] | >6.5 | >5 | – | – | – | –
26 | COc1cc(-c2nc(-c3ccc4c(c3)nnn4C(C)C)no2)ccn1 [Compound 116, 3-(1-isopropyl-1H-benzo[d][1,2,3]triazol-5-yl)-5-(2-methoxypyridin-4-yl)-1,2,4-oxadiazole] | <6.5 | <5 | < 75% | < 75% | – | –
27 | COc1cccc2oc(-c3ccc4c(c3)nnn4CC(C)C)nc12 [Compound 450, 2-(1-isobutyl-1H-benzo[d][1,2,3]triazol-5-yl)-4-methoxybenzo[d]oxazole] | >6.5 | >5 | > 75% | > 75% | – | –
28 | Cc1cc(-c2noc(-c3ccc4c(c3)nnn4C3CCCC3)n2)ccn1 [Compound 77] | – | – | < 75% | < 75% | – | –
29 | CCC1(CC)CC(=O)c2cc(-c3nc(-c4ccc5c(c4)CC(=O)N5)no3)ccc2O1 [Compound 416, 5-(5-(2,2-diethyl-4-oxochroman-6-yl)-1,2,4-oxadiazol-3-yl)indolin-2-one] | >6.5 | >5 | – | – | – | –
30 | Clc1ncccc1-c1noc(-c2ccc3c(c2)nnn3C2CCCC2)n1 [Compound 198, 5-[3-(2-chloropyridin-3-yl)-1,2,4-oxadiazol-5-yl]-1-cyclopentyl-1H-1,2,3-benzotriazole] | >6.5 | >5 | > 75% | < 75% | – | –
